Data as given in US8961924B2, “Metal complexes” (University of Zurich, priority 2008, dated 2015).

Assay: Model experiments with 99Tc complex kept at pH 1
Type: physicochemical
Conditions: complex with 99Tc; kept at pH 1 for days

In the case of [O]=[Tc]12(=[O])(=[O])[N]3CC[N]1CC[N]2CC3 [Compound 1, [TcO3(tacn)]^+], the “hydrolysis at pH 1” value is reported as “without significant hydrolysis”.
